How the values were obtained:
Type in all cases: cell-based
PfCRT^Dd2 [1] = target: T1, PfCRT^Dd2 (Plasmodium falciparum, UniProt Q9N623, A220S/I356T/K76T/M74I/N326S/N75E/Q271E/R371I); experiment: [3H]CQ uptake into Xenopus oocytes, cis-inhibition by unlabelled solute; conditions: PfCRTDd2 oocytes, background [3H]CQ accumulation subtracted, normalised to oocyte type control
Procedure, shortened: (§1)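 Transport runs from the acidic bath into the cytosol, analogous to PfCRT-mediated efflux out of the vacuole. Non-expressing oocytes act as background.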

PfCRT^Ecu1110 [2] = target: T2, PfCRT^Ecu1110 (Plasmodium falciparum, UniProt Q9N623, A220S/I356L/K76T/N326D); experiment: as above; conditions: for PfCRT-mediated [3H]CQ transport, cis-inhibition (% PfCRTEcu1110 control): PfCRTEcu1110 oocytes, background [3H]CQ accumulation subtracted, normalised to oocyte type control; for [3H]CQ transport (% PfCRTEcu1110 control), cis-inhibition, PfCRTEcu1110: PfCRT-mediated component (background subtracted), sheet title says normalised to PfCRTDd2 control, mean ± SEM, SEM
Procedure, shortened: as §1

PfCRT^3D7 = PfCRT^3D7 (Plasmodium falciparum, UniProt Q8IBZ9); experiment: cell-based; conditions: PfCRT3D7 oocytes, normalised to oocyte type control
Procedure, shortened: (§2)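 Oocytes (ten per treatment, ≥4 independent frogs/days) were preloaded by injecting VF-6 in 25 nL ND96 at pH 5.0, 5.5, 6.0 or 7.0, or Na^+-free choline buffer, then uptake run 1.5 h, 27.5 °C, ND96 pH 5.5 by default. Internal concentrations assumed ~400 nL oocyte volume.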

PfCRT^Dd2 [3] = target: T1, PfCRT^Dd2; experiment: cell-based; conditions: for PfCRT-mediated [3H]CQ transport, trans-stimulation (% PfCRTDd2 control): PfCRTDd2 oocytes, normalised to oocyte type control; for [3H]CQ transport (% PfCRTDd2 control), trans-stimulation, PfCRTDd2: PfCRT-mediated component (background subtracted), mean ± SEM, SEM
Procedure, shortened: as §2

PfCRT^Ecu1110 [4] = target: T2, PfCRT^Ecu1110; experiment: cell-based; conditions: for PfCRT-mediated [3H]CQ transport, trans-stimulation (% PfCRTEcu1110 control): PfCRTEcu1110 oocytes, normalised to oocyte type control; for [3H]CQ transport (% PfCRTDd2 control), trans-stimulation, PfCRTEcu1110: PfCRT-mediated component (background subtracted), sheet title says normalised to PfCRTDd2 control, mean ± SEM, SEM
Procedure, shortened: as §2

[5] = [test solute]i = 5 mM (intracellular)
[6] = [test solute]i = 45 mM (intracellular; 30 mM for some solutes due to solubility)
[7] = [test solute]i = 5 mM (injected)
[8] = [test solute]i = 45 mM (30 mM for some solutes due to solubility)

Chain of PfCRT^3D7 (Q8IBZ9 59-398): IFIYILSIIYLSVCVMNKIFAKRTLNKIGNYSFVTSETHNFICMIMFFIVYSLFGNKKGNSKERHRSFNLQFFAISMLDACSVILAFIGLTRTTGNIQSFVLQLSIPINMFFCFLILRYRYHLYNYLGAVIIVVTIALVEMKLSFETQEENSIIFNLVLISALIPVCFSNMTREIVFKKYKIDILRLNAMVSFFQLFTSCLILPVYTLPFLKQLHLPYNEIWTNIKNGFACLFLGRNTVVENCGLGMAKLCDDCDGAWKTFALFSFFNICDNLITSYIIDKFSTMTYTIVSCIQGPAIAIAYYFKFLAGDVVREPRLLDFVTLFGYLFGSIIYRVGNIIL
T2 sequence (Q9N623 whole entry A220S/I356L/K76T/N326D): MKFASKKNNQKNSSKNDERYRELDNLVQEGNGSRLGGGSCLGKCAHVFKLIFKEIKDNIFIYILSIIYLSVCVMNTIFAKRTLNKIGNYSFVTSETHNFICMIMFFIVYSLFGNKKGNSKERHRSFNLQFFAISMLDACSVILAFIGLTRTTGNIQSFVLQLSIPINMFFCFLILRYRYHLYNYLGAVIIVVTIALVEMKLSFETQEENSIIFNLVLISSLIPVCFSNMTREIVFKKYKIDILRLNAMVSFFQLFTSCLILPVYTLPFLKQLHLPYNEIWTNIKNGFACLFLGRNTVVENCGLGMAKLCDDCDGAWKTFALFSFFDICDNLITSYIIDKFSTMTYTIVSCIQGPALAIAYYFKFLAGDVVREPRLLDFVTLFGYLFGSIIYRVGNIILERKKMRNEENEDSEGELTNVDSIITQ
T1 sequence (Q9N623 whole entry A220S/I356T/K76T/M74I/N326S/N75E/Q271E/R371I): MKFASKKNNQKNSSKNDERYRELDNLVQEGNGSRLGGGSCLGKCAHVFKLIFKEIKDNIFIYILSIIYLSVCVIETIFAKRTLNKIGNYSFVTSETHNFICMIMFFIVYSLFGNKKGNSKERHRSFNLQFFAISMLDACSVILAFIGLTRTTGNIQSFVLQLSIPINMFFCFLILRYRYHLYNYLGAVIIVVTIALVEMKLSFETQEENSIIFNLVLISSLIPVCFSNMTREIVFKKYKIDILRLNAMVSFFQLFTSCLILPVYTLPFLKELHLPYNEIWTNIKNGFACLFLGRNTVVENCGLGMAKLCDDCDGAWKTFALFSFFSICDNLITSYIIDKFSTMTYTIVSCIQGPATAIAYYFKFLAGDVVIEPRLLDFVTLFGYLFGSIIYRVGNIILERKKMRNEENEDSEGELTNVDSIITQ

PNALS [PS-5, host-derived peptide upstream of PL-4]
PfCRT-mediated [3H]CQ transport, cis-inhibition (% PfCRTDd2 control) (PfCRT^Dd2 [1]; [test solute] = 1 mM): 30 ± 2.7 % PfCRTDd2 control | PfCRT-mediated [3H]CQ transport, cis-inhibition (% PfCRTDd2 control) (PfCRT^Dd2 [1]; [test solute] = 2 mM): 19 ± 0.3 % PfCRTDd2 control | PfCRT-mediated [3H]CQ transport, cis-inhibition (% PfCRTEcu1110 control) (PfCRT^Ecu1110 [2]; [test solute] = 0.5 mM): 50 ± 2.5 % PfCRTEcu1110 control | PfCRT-mediated [3H]CQ transport, cis-inhibition (% PfCRTEcu1110 control) (PfCRT^Ecu1110 [2]; [test solute] = 1 mM): 42 ± 1.8 % PfCRTEcu1110 control | PfCRT-mediated [3H]CQ transport, cis-inhibition (% PfCRTEcu1110 control) (PfCRT^Ecu1110 [2]; [test solute] = 2 mM): 29 ± 1.1 % PfCRTEcu1110 control | [3H]CQ transport (% PfCRTEcu1110 control), cis-inhibition, PfCRTEcu1110 (PfCRT^Ecu1110 [2]; [test solute] = 1 mM): 13 ± 0.1 % PfCRTEcu1110 control | [3H]CQ transport (% PfCRTEcu1110 control), cis-inhibition, PfCRTEcu1110 (PfCRT^Ecu1110 [2]; [test solute] = 2 mM): 9.0 ± 0.01 % PfCRTEcu1110 control | PfCRT-mediated [3H]CQ transport, trans-stimulation (% PfCRT3D7 control) (PfCRT^3D7; [5]): 131 ± 6.2 % PfCRT3D7 control | PfCRT-mediated [3H]CQ transport, trans-stimulation (% PfCRT3D7 control) (PfCRT^3D7; [6]): 180 ± 3.6 % PfCRT3D7 control | PfCRT-mediated [3H]CQ transport, trans-stimulation (% PfCRTDd2 control) (PfCRT^Dd2 [3]; [5]): 99 ± 4.6 % PfCRTDd2 control | PfCRT-mediated [3H]CQ transport, trans-stimulation (% PfCRTDd2 control) (PfCRT^Dd2 [3]; [6]): 96 ± 4.1 % PfCRTDd2 control | [3H]CQ transport (% PfCRTDd2 control), trans-stimulation, PfCRTDd2 (PfCRT^Dd2 [3]; [7]): 99 ± 4.6 % PfCRTDd2 control | [3H]CQ transport (% PfCRTDd2 control), trans-stimulation, PfCRTDd2 (PfCRT^Dd2 [3]; [8]): 96 ± 4.1 % PfCRTDd2 control | PfCRT-mediated [3H]CQ transport, trans-stimulation (% PfCRTEcu1110 control) (PfCRT^Ecu1110 [4]; [5]): 127 ± 2.6 % PfCRTEcu1110 control | PfCRT-mediated [3H]CQ transport, trans-stimulation (% PfCRTEcu1110 control) (PfCRT^Ecu1110 [4]; [6]): 136 ± 4.6 % PfCRTEcu1110 control | [3H]CQ transport (% PfCRTDd2 control), trans-stimulation, PfCRTEcu1110 (PfCRT^Ecu1110 [4]; [7]): 38 ± 1.5 % PfCRTEcu1110 control | [3H]CQ transport (% PfCRTDd2 control), trans-stimulation, PfCRTEcu1110 (PfCRT^Ecu1110 [4]; [8]): 41 ± 2.2 % PfCRTEcu1110 control

GTFAT [GT-5]
PfCRT-mediated [3H]CQ transport, cis-inhibition (% PfCRTDd2 control) (PfCRT^Dd2 [1]; [test solute] = 0.5 mM): 62 ± 2.0 % PfCRTDd2 control | PfCRT-mediated [3H]CQ transport, cis-inhibition (% PfCRTDd2 control) (PfCRT^Dd2 [1]; [test solute] = 1 mM): 50 ± 2.2 % PfCRTDd2 control | PfCRT-mediated [3H]CQ transport, cis-inhibition (% PfCRTDd2 control) (PfCRT^Dd2 [1]; [test solute] = 2 mM): 20 ± 1.1 % PfCRTDd2 control | PfCRT-mediated [3H]CQ transport, cis-inhibition (% PfCRTEcu1110 control) (PfCRT^Ecu1110 [2]; [test solute] = 0.5 mM): 51 ± 1.1 % PfCRTEcu1110 control | PfCRT-mediated [3H]CQ transport, cis-inhibition (% PfCRTEcu1110 control) (PfCRT^Ecu1110 [2]; [test solute] = 1 mM): 41 ± 2.5 % PfCRTEcu1110 control | PfCRT-mediated [3H]CQ transport, cis-inhibition (% PfCRTEcu1110 control) (PfCRT^Ecu1110 [2]; [test solute] = 2 mM): 30 ± 0.4 % PfCRTEcu1110 control | [3H]CQ transport (% PfCRTEcu1110 control), cis-inhibition, PfCRTEcu1110 (PfCRT^Ecu1110 [2]; [test solute] = 1 mM): 13 ± 0.3 % PfCRTEcu1110 control | [3H]CQ transport (% PfCRTEcu1110 control), cis-inhibition, PfCRTEcu1110 (PfCRT^Ecu1110 [2]; [test solute] = 2 mM): 9.0 ± 0.1 % PfCRTEcu1110 control | PfCRT-mediated [3H]CQ transport, trans-stimulation (% PfCRT3D7 control) (PfCRT^3D7; [5]): 96 ± 3.5 % PfCRT3D7 control | PfCRT-mediated [3H]CQ transport, trans-stimulation (% PfCRT3D7 control) (PfCRT^3D7; [6]): 96 ± 3.4 % PfCRT3D7 control | PfCRT-mediated [3H]CQ transport, trans-stimulation (% PfCRTDd2 control) (PfCRT^Dd2 [3]; [5]): 96 ± 3.5 % PfCRTDd2 control | PfCRT-mediated [3H]CQ transport, trans-stimulation (% PfCRTDd2 control) (PfCRT^Dd2 [3]; [6]): 96 ± 4.2 % PfCRTDd2 control | [3H]CQ transport (% PfCRTDd2 control), trans-stimulation, PfCRTDd2 (PfCRT^Dd2 [3]; [7]): 96 ± 3.5 % PfCRTDd2 control | [3H]CQ transport (% PfCRTDd2 control), trans-stimulation, PfCRTDd2 (PfCRT^Dd2 [3]; [8]): 96 ± 4.2 % PfCRTDd2 control | PfCRT-mediated [3H]CQ transport, trans-stimulation (% PfCRTEcu1110 control) (PfCRT^Ecu1110 [4]; [5]): 98 ± 4.6 % PfCRTEcu1110 control | PfCRT-mediated [3H]CQ transport, trans-stimulation (% PfCRTEcu1110 control) (PfCRT^Ecu1110 [4]; [6]): 98 ± 4.4 % PfCRTEcu1110 control | [3H]CQ transport (% PfCRTDd2 control), trans-stimulation, PfCRTEcu1110 (PfCRT^Ecu1110 [4]; [7]): 30 ± 1.6 % PfCRTEcu1110 control | [3H]CQ transport (% PfCRTDd2 control), trans-stimulation, PfCRTEcu1110 (PfCRT^Ecu1110 [4]; [8]): 30 ± 1.7 % PfCRTEcu1110 control

HVDPEN [HN-6]
PfCRT-mediated [3H]CQ transport, cis-inhibition (% PfCRTDd2 control) (PfCRT^Dd2 [1]; [test solute] = 0.5 mM): 21 ± 0.7 % PfCRTDd2 control | PfCRT-mediated [3H]CQ transport, cis-inhibition (% PfCRTDd2 control) (PfCRT^Dd2 [1]; [test solute] = 1 mM): 15 ± 1.1 % PfCRTDd2 control | PfCRT-mediated [3H]CQ transport, cis-inhibition (% PfCRTDd2 control) (PfCRT^Dd2 [1]; [test solute] = 2 mM): 7.3 ± 0.2 % PfCRTDd2 control | PfCRT-mediated [3H]CQ transport, cis-inhibition (% PfCRTEcu1110 control) (PfCRT^Ecu1110 [2]; [test solute] = 0.5 mM): 61 ± 1.5 % PfCRTEcu1110 control | PfCRT-mediated [3H]CQ transport, cis-inhibition (% PfCRTEcu1110 control) (PfCRT^Ecu1110 [2]; [test solute] = 1 mM): 44 ± 3.1 % PfCRTEcu1110 control | PfCRT-mediated [3H]CQ transport, cis-inhibition (% PfCRTEcu1110 control) (PfCRT^Ecu1110 [2]; [test solute] = 2 mM): 49 ± 2.4 % PfCRTEcu1110 control | [3H]CQ transport (% PfCRTEcu1110 control), cis-inhibition, PfCRTEcu1110 (PfCRT^Ecu1110 [2]; [test solute] = 0.5 mM): 19 ± 0.3 % PfCRTEcu1110 control | [3H]CQ transport (% PfCRTEcu1110 control), cis-inhibition, PfCRTEcu1110 (PfCRT^Ecu1110 [2]; [test solute] = 1 mM): 14 ± 0.1 % PfCRTEcu1110 control | [3H]CQ transport (% PfCRTEcu1110 control), cis-inhibition, PfCRTEcu1110 (PfCRT^Ecu1110 [2]; [test solute] = 2 mM): 15 ± 0.4 % PfCRTEcu1110 control | PfCRT-mediated [3H]CQ transport, trans-stimulation (% PfCRT3D7 control) (PfCRT^3D7; [5]): 148 ± 4.6 % PfCRT3D7 control | PfCRT-mediated [3H]CQ transport, trans-stimulation (% PfCRT3D7 control) (PfCRT^3D7; [6]): 193 ± 4.7 % PfCRT3D7 control | PfCRT-mediated [3H]CQ transport, trans-stimulation (% PfCRTDd2 control) (PfCRT^Dd2 [3]; [5]): 100 ± 2.1 % PfCRTDd2 control | PfCRT-mediated [3H]CQ transport, trans-stimulation (% PfCRTDd2 control) (PfCRT^Dd2 [3]; [6]): 113 ± 1.1 % PfCRTDd2 control | [3H]CQ transport (% PfCRTDd2 control), trans-stimulation, PfCRTDd2 (PfCRT^Dd2 [3]; [7]): 100 ± 2.1 % PfCRTDd2 control | [3H]CQ transport (% PfCRTDd2 control), trans-stimulation, PfCRTDd2 (PfCRT^Dd2 [3]; [8]): 113 ± 1.1 % PfCRTDd2 control | PfCRT-mediated [3H]CQ transport, trans-stimulation (% PfCRTEcu1110 control) (PfCRT^Ecu1110 [4]; [5]): 117 ± 2.2 % PfCRTEcu1110 control | PfCRT-mediated [3H]CQ transport, trans-stimulation (% PfCRTEcu1110 control) (PfCRT^Ecu1110 [4]; [6]): 136 ± 3.2 % PfCRTEcu1110 control | [3H]CQ transport (% PfCRTDd2 control), trans-stimulation, PfCRTEcu1110 (PfCRT^Ecu1110 [4]; [7]): 35 ± 1.3 % PfCRTEcu1110 control | [3H]CQ transport (% PfCRTDd2 control), trans-stimulation, PfCRTEcu1110 (PfCRT^Ecu1110 [4]; [8]): 41 ± 1.6 % PfCRTEcu1110 control
